In general, logD refers to the decadic logarithm of the distribution of all forms, ionised or not, between an organic phase and buffer at a given pH. High values mean a more lipophilic compound, low ones a more hydrophilic compound. For orientation: solubility means the concentration that dissolves in the medium under given conditions.

Converted amounts (≈) assume the structure as drawn. Read-outs that look alike come from different tables or passages of the source.

This is an account of results in US20250205230A1 (priority 2022, published 2025).

Series [1] deals with PERK. The class given is cell-based. As to conditions: for increase in eIF2α phosphorylation: 20 μM, 0.1 MOI, lysed 24 h; for eIF2α phosphorylation (eIF2α-P relative to total eIF2α), in words: HEK293 infected at 0.1 MOI, 10 or 20 μM, lysed 24 hours post-infection.
Series [2] can be described thus: Lipophilicity (logD7.4). As to conditions: for logD: pH 7.4.
A short description of series [3]: Solubility.
The test system of series [4] is VSVΔ51M. The class given is cell-based, vesicular stomatitis Indiana virus (VSV). The settings on record: 10 μM.
For series [5], the system named is VSVΔ51M. The series is classed as cell-based, vesicular stomatitis Indiana virus (VSV).
The subject of series [6] is TGEV (an alpha-coronavirus). The settings on record: cited from earlier work.
Series [7] has as its system asialoglycoprotein receptor H2b. The series can be described thus: Oligosaccharide maturation of H2b in transfected HEK293 cells (western blot). The series is classed as cell-based. The settings on record: Endo H.
The subject of series [8] is PERK. The series can be described thus: eIF2α phosphorylation in non-infected HEK293 cells. The series is classed as cell-based. As to conditions: lysed 24 hours post-treatment.
Series [9] concerns ACE2. The series can be described thus: Oligosaccharide maturation of ACE2 in transfected HEK293 cells (western blot). The class given is cell-based. The settings on record: Endo H or N-glycanase. (In general: Immunoblotting shows a protein as a band on a membrane.)
The subject of series [10] is SARS-CoV-2. The class given is cell-based.
Where [11] appears, read: treatment began at the start of the infection.

For `Oc1ccc(C=NNc2nc(-c3ccccc3)cc(-c3ccccc3)n2)cc1O` (racemic) [GLB7, 4-((2-(4,6-diphenylpyrimidin-2-yl)hydrazono)methyl)benzene-1,2-diol], the “increase in eIF2α phosphorylation” value in [1] (setting [11]) was “about 1.5 fold”. Besides, the “eIF2α phosphorylation (eIF2α-P relative to total eIF2α), in words” value in [1] was “strong increase”. Besides, the “lipophilicity, in words” value in [2] (compared with MK-28) was “decreased lipophilicity”. Further, in series [2], the logD stood at 3.6. For the same compound, the solubility in series [3] amounted to 16 µM (≈ 6.12 µg/mL). Moreover, in series [3] (ratio GLB7 vs MK-28), the “solubility compared to MK-28” value is listed as “more than 10 fold”. For the same compound, in [4], the “inhibition of replication, comparison between compounds” value is on record as “greater inhibition than MK-28” and the “reduction of titer of infectious virions” value was “several orders of magnitude”. In series [5], the “infectivity (VSV-G level), in words” value is “major decrease in infectivity”. In addition, in series [5] (20 μM), the “decrease in infectivity (VSV-G relative to actin)” value is reported as “about 3 fold”.

On to `O=C(COc1ccc(Cl)cc1)NC1CCC(NC(=O)COc2ccc(Cl)cc2)CC1` (centres unmarked) [ISRIB], for which the “expression of TGEV viral proteins and viral titers” value in series [6] is reported as “increased”.

`CN(N=Cc1ccc(O)c(O)c1)c1nc(-c2ccccc2)cc(-c2ccccc2)n1` [MK-28, 4-((2-(4,6-diphenylpyrimidin-2-yl)-2-methylhydrazineylidene)methyl) benzene-1,2-diol]: the “increase in eIF2α phosphorylation” value is “about 4 fold” in series [1] (treatment began 3 hours after the start of the infection), “about 5 fold” in [1] (setting [11]), “about 1.4 fold” in series [8] (10 μM) and “about 1.1 fold” in series [8] (20 μM). In addition, in series [1], the “eIF2α phosphorylation (eIF2α-P relative to total eIF2α), in words” value is recorded as “strong increase”. In series [7], the “effect on maturation of H2b” value is recorded as “no effect”. For the same compound, the “effect on maturation of ACE2” value in [9] was “no effect”. Also, in series [2], the logD came out at 4.5. In [3], this compound returned a solubility of 1.4 µM (≈ 0.555 µg/mL). Further, the “reduction of SARS-CoV-2 replication (titer of infectious virions)” value in series [10] is reported as 10- to 100 fold. For the same compound, in [4], the “inhibition of replication, comparison between compounds” value was “greater inhibition of replication than did GLB7”. The “reduction of titer of infectious virions” value in [4] is “several orders of magnitude”.
